Test results from US8217006B2, “Inhibiting GS-FDH to modulate no bioactivity” (Duke University, priority 2001, dated 2012).

How the values were obtained:
impotence = test: Example XIII: diabetic patient with impotence; assay type: in vivo, human
Source text: A diabetic with a history of impotence presents to their urologist. […] Their physician adds topical mycophenolic acid (5% paste) with good results.

malignant hypertension = test: Example XXVIII: heart failure and malignant hypertension; assay type: in vivo, human
Source text: A person presents with heart failure and malignant hypertension.

squamous cell cancer = details: intravenously 200 milligrams per kilogram four times a day; stage 3B before
[1] = system: benign prostatic hypertrophy; details: 600 mg three times a day; over three months
wheezing = details: intravenous infusion 50 mg/kg Q.6 hours; person
viral pneumonia = details: inhaled, 3 mM/3 cc normal saline four times a day
Source text: A person status post lung transplant is admitted to the hospital with viral pneumonia.

Hodgkins disease = details: 1 gram three times a day for a month
Source text: A person has a biopsy done on an axillary node which establishes the diagnosis of Hodgkins disease.

liver function = details: infusion 200 milligrams per kilogram every 6 hours; over the following week
Source text: A child presents to the Emergency Room having ingested a toxic dose of Tylenol. […] This is an example of treating a patient for a disease where there is risk of apoptosis occurring.

pinworm = details: 1 gram daily for three days
severe heart failure = details: infusion 1 gram TED for 10 days
Source text: A person with acute viral myocarditis develops severe heart failure. […] They are placed on the transplant list.

cystic fibrosis = test: Example II: patient with cystic fibrosis; assay type: in vivo, human; details: inhaled S-nitrosoglutathione (10 mM in 3 cc) in combination with D-glutathione (3 mM in 10 cc); over the following day
Source text: A person with cystic fibrosis presents to the Emergency Room with difficulty breathing and a fever.

[2] = system: swollen abdomen and elevated LSTs; details: infusion 200 milligrams per kilogram every 6 hours for two weeks
unstable angina = details: intravenous infusion 100 mg per kg Q6 hours; on betablockers and nitrates
Source text: A person status post CABG×2 presents with unstable angina.

blood pressure = details: 600 milligrams BID; three weeks later; 160/90 before
Source text: A person presents to their primary care physician.

atherosclerosis = details: 600 mg TID for a week
angina = test: Example XXVII: angina treated with nitroglycerine and GS-FDH inhibitor; assay type: in vivo, human; details: 600 mg TIE, concomitantly with nitroglycerine
ARDS = details: inhaled 10 mM in 3 cc normal saline; from 60 mm Hg on 100% oxygen; over 1 hour
Source text: A person develops ARDS as a complication of urosepsis. They are intubated and transferred to the Intensive Care Unit.

[3] = system: 90% lesion of the left anterior descending coronary artery; details: 600 mg P.O. three times a day for a month
Source text: A person has a stent placed for 90% lesion of the left anterior descending coronary artery.

[4] = system: Cells from an injured mouse liver; test: Survival of cells from cytokine-injured mouse liver treated with NO synthase inhibitor; assay type: cell-based; details: 1 millimolar
Procedure: (§1) Hepatocytes of wild-type mice and their GS-FDH^−/− littermates were harvested after perfusion of the livers with Liberase (Roche), and purified by repeated differential sedimentation at 50×g, followed by centrifugation over a 30% Percoll solution. […] The cells were then cultured in the presence of recombinant mouse tumor necrosis factor-α (500 units/ml), interferon-gamma (100 units/ml), interleuken-1β (200 units/ml) and lipopolysaccharide (LPS, 10 μg/ml; E. coli 0128:B12; Sigma) for 14 and 40 hours. Nitrosylation levels in hepatocytes were measured as described in Eu, J., et al., Biochemistry 39, 1040-1047 (2000). […] See Liu, L. and Stamler, J. S., Cell Death and Differentiation 6, 937-942 (1999).

[5] = system: injured mouse liver cells deficient in GS-FDH; test: Survival of GS-FDH-deficient cells from cytokine-injured mouse liver treated with NO synthase inhibitor; assay type: cell-based; details: same cells but deficient in GS-FDH; 1 millimolar
Procedure: as §1

mouse GS-FDH = target: T1, mouse GS-FDH (Mus musculus, UniProt P28474); test: Kinetic analysis of purified GSNO reductase (GS-FDH) from RAW 264.7 cells; assay type: biochemical; details: purified protein
T1 construct: GSNO-metabolizing activity of RAW 264.7 cells was recovered in a single function following anion exchange on a MonoQ column; endogenous in cells; host or cells: RAW 264.7 mouse macrophages (ATCC); purified by ammonium sulfate precipitation, MonoQ and 5' AMP Sepharose 4B
T1 sequence (P28474 whole entry): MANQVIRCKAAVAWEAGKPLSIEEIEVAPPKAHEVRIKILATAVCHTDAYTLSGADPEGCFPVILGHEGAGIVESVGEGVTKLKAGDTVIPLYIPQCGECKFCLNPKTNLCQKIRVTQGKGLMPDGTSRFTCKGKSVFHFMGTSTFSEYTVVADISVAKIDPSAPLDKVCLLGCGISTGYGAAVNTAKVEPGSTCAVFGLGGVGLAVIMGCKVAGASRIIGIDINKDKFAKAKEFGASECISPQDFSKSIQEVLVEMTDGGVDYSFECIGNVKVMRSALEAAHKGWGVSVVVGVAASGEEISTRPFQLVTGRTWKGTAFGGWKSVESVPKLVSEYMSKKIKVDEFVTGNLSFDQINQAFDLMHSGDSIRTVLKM
Procedure: Cells were homogenized by sonication in a solution containing 20 mM Tris-HCl (pH 8.0), 0.5 mM EDTA, 0.1% NP-40 and 1 mM phenylmethylsulfonyl (PMSF).
Further purification over a 5′ AMP Sepharose column yielded a single band of about 43 kDa in a silver-stained SDS-PAGE gel. […] After dialysis against 20 mM Tris-HCl (pH 8.0), the proteins were fractionated on a MonoQ column with increasing concentrations of NaCl. […] SDS-PAGE and Coomassie blue staining gave the single band of about 43 kDa.
The purified protein was digested by trypsin and the resulting peptides were analyzed by mass spectrometry. Peptide mass database search with GPMAW program identified the protein as mouse GS-FDH(SP-P28474) with high scores, matching 8 fragments (42% coverage) to mouse GS-FDH.

restenosis = test: Example X: restenosis post-angioplasty, drug-coated stent; assay type: in vivo, human; details: Nir stent coated with drug, 30% per polymer
Source text: The patient was discharged the following day, and did well.

sfa1 mutant cells = test: Growth of GS-FDH-deficient yeast under nitrosative or oxidative stress; assay type: cell-based
Source text: Genet. 237, 351 (1993) (SFA1/YDL168w) was replaced with dominant selectable cassettes Kan 2 (resistant to G418) or hphMX (resistant to hydromycin) by direct targeting as described in Wach, A., et al., Yeast 10, 1793 (1994). KanMX2 is described in Wach, A. et al., Yeast 10, 1793 (1994). hphMX is described in Goldstein and MeCuskler, Yeast 15, 1541 (1991).

ringworm = test: Example XVI: ringworm; assay type: in vivo, human; details: topical ointment 5%, daily for a week
intractable angina = test: Example VIII: patient with intractable angina; assay type: in vivo, human; details: 6 grams injected at 20 milligrams per milliliter, daily for seven days; by six weeks
Procedure: A person with intractable angina is administered ribavirn as 6 grams diluted to a final volume of 300 cc in sterile water and injected at a final concentration of 20 milligrams per milliliter, given daily for seven days.

chronic psoriasis = test: Example XI: patient with chronic psoriasis; assay type: in vivo, human; details: topical paste, 5% with acetylsalicylic acid 2%, 8 hours a day, two weeks
Procedure: A person with chronic psoriasis presents at the dermatologist. A paste comprised of acetylsalicylic acid, 2%, combined with 5% ribavirin was applied topically for 8 hours a day.

pulmonary embolism = test: Example IX: patient with pulmonary embolism; assay type: in vivo, human; details: inhaled, 6 grams in 300 cc, aerosol, 12 hours/day for three days
Procedure: A person presents with shortness of breath and hemoptysis. […] Treatment is carried out for 12 hours/day for three days.

tumors = details: previous use; cited from earlier work
[6] = system: human epithelial A549 cells; test: GSNO metabolizing activity of A549 cell lysate (Saville assay); assay type: biochemical; details: A549 lysate 4 μg/ml, 200 μM GSNO, 37° C., 5 minutes
Procedure: (§2) The cells were from cell lines obtained from the ATCC. Cells were homogenized by sonication in a solution containing 20 mM Tris-HCl (pH 8.0), 0.5 mM EDTA, 0.1% NP-40 and 1 mM phenylmethylsulfonyl fluoride (PMSF). […] After precipitation of the reaction mixtures with trichloroacetic acid (8.3% final concentration), the supernatants were diluted threefold in the buffer and nitrosothiol levels in the reaction mixture were measured by the Saville assay as described in Stamler, J. S., Science 276, 2034 (1997). Data are the mean of two independent experiments.

wild-type Y190 cells = test: Growth of wild-type yeast treated with GSNO; assay type: cell-based; details: same concentrations as for the mutants
human HeLa cells = test: GSNO metabolizing activity of HeLa cell lysate (Saville assay); assay type: biochemical; details: HeLa lysate 4 μg/ml, 200 μM GSNO, 37° C., 5 minutes
Procedure: as §2

[7] = GSNO decomposition in reaction buffer, no lysate (Saville assay); assay type: biochemical; details: 200 μM GSNO, 37° C., 5 minutes
Procedure: After precipitation of the reaction mixtures with trichloroacetic acid (8.3% final concentration), the supernatants were diluted threefold in the buffer and nitrosothiol levels in the reaction mixture were measured by the Saville assay as described in Stamler, J. S., Science 276, 2034 (1997). Data are the mean of two independent experiments.

[8] = system: human monocyte THP-1 cells; test: GSNO metabolizing activity of THP-1 cell lysate (Saville assay); assay type: biochemical; details: THP-1 lysate 4 μg/ml, 200 μM GSNO, 37° C., 5 minutes
Procedure: as §2

Question: For `CCCc1nn(C)c2c(=O)[nH]c(-c3cc(S(=O)(=O)N4CCN(C)CC4)ccc3OCC)nc12` [Viagra], which impotence (impotence; Viagra alone) is on record?
Answer: no improvement

Question: With nitroprusside as the molecule, how does the “Blood pressure, systolic” value (malignant hypertension; nitroprusside alone, 1.0 μg/kg/min IV infusion for 10 minutes, from 240) read?
Answer: 200

Question: With `N[C@H](CCC(=O)N[C@H](CS)C(=O)NCC(=O)O)C(=O)O` [D-glutathione] as the molecule, how does the “tumor stage on restaging” value (squamous cell cancer) read?
Answer: 3A

Question: What about the “symptoms (urinary frequency and hesitancy)” value [1] of the same molecule?
Answer: symptoms gradually resolve

Question: What about the breathing (wheezing) of the same molecule?
Answer: breathing improves

Question: What about the “symptoms of cough and shortness of breath” value (viral pneumonia) of the same molecule?
Answer: resolution of symptoms of cough and shortness of breath

Question: What about the adenopathy (Hodgkins disease) of the same molecule?
Answer: resolution of adenopathy

Question: What about the liver function (liver function) of the same molecule?
Answer: gradual normalization of liver function

Question: And the “Blood pressure, systolic” value (malignant hypertension; 600 mg TID coadministered with nitroprusside, from 200)?
Answer: 160

Question: What about the signs and symptoms (pinworm) of the same molecule?
Answer: signs and symptom resolve

Question: And the clinical course (severe heart failure)?
Answer: stabilized their deteriorating course

Question: What about the “symptoms (difficulty breathing, fever)” value (cystic fibrosis) of the same molecule?
Answer: symptoms resolve

Question: And the “swelling and LSTs” value [2]?
Answer: swelling and elevated LSTs are reduced

Question: And the “symptoms (chest pain)” value (unstable angina)?
Answer: relief of their symptoms

Question: What about the blood pressure (blood pressure) of the same molecule?
Answer: 140/80

Question: What about the response to acetylcholine (atherosclerosis) of the same molecule?
Answer: improved response to acetylcholine

Question: And the “symptoms (chest pain)” value (angina)?
Answer: total relief of symptoms

Question: And the PO2 (ARDS)?
Answer: 80 mm/Hg

Question: And the “course after stent placement” value [3]?
Answer: does well

Question: Which “nitric oxide synthase activity left” value [4] does the source give for `CNC(=N)NCCC[C@H](N)C(=O)O` [N^G-methyl-L-arginine] here?
Answer: 20%

Question: What about the cell death ([4]; liver injured by cytokine administration) of the same molecule?
Answer: found to die

Question: What about the cell death [5] of the same molecule?
Answer: died to a lesser extent

Question: With `N[C@@H](CCC(=O)N[C@@H](CSCO)C(=O)NCC(=O)O)C(=O)O` [S-hydroxymethylglutathione] as the molecule, how does the “specific activity for oxidation, as share of the GSNO reducing activity” value (mouse GS-FDH) read?
Answer: about 6%

Question: For `COc1c(C)c2c(c(O)c1C/C=C(\C)CCC(=O)O)C(=O)OC2` [mycophenolic acid], which “outcome of stent deployment” value (restenosis) is on record?
Answer: successful results

Question: What about the impotence (impotence; topical 5% paste added to Viagra) of the same molecule?
Answer: good results

Question: For `OO` [Compound H2O2, H2O2], which “sensitivity to the toxic effects, mutant versus wild-type Y190 cells” value (sfa1 mutant cells; sfa1 mutant cells) is on record?
Answer: no more sensitive

Question: Which skin lesion (ringworm) does the source give for `NC(=O)c1ncn([C@@H]2O[C@H](CO)[C@@H](O)[C@H]2O)n1` [ribavirin] here?
Answer: skin lesion resolve

Question: And the angina (intractable angina)?
Answer: angina had improved

Question: And the psoriatic lesion (chronic psoriasis)?
Answer: psoriatic lesion had resolved

Question: What about the “symptoms (shortness of breath, hemoptysis)” value (pulmonary embolism) of the same molecule?
Answer: improvement in symptoms

Question: What about the “activity as antitumor agent” value (tumors) of the same molecule?
Answer: inactive

Question: For `N[C@@H](CCC(=O)N[C@@H](CSN=O)C(=O)NCC(=O)O)C(=O)O` [GSNO, S-nitrosoglutathione], which GSNO metabolizing activity ([6]; +NADH) is on record?
Answer: 72.3%

Question: And the GSNO metabolizing activity ([6]; +NADPH + GSH + ASA)?
Answer: 43.9%

Question: And the GSNO metabolizing activity ([6]; Buffer only)?
Answer: 14.7%

Question: And the Growth of cells (sfa1 mutant cells; sfa1 mutant cells (G418^r and hygromicin^r clones))?
Answer: markedly inhibited

Question: And the Growth of cells (wild-type Y190 cells)?
Answer: little effect

Question: What about the GSNO metabolizing activity (human HeLa cells; +NADH) of the same molecule?
Answer: 84.2%

Question: And the GSNO metabolizing activity (human HeLa cells; +NADPH + GSH + ASA)?
Answer: 35.4%

Question: And the GSNO metabolizing activity (human HeLa cells; Buffer only)?
Answer: 29.9%

Question: And the GSNO metabolizing activity ([7]; +NADH)?
Answer: 0.0%

Question: What about the GSNO metabolizing activity ([7]; +NADPH + GSH + ASA) of the same molecule?
Answer: 0.7%

Question: And the GSNO metabolizing activity ([7]; Buffer only)?
Answer: 6.2%

Question: What about the “symptoms (difficulty breathing, fever)” value (cystic fibrosis) of the same molecule?
Answer: symptoms resolve

Question: And the GSNO metabolizing activity ([8]; +NADH)?
Answer: 90.8%

Question: And the GSNO metabolizing activity ([8]; +NADPH + GSH + ASA)?
Answer: 22.6%

Question: And the GSNO metabolizing activity ([8]; Buffer only)?
Answer: 18.8%

Question: For `NC(=O)c1coc([C@@H]2O[C@H](CO)[C@@H](O)[C@H]2O)c1` [furanfurin, 5-β-D-ribofuranosylfuran-3-carboxamide], which “activity as antitumor agent” value (tumors) is on record?
Answer: inactive
